Measured values: US7476687B2, “Substituted furo[2,3-g]indazoles for the treatment of glaucoma” (Alcon, Inc., priority 2003, dated 2009)

Experiments:
[1] = system: Conscious Cynomolgus Monkeys; assay: IOP Response in Conscious Cynomolgus Monkeys; type: in vivo, cynomolgus monkey; details: right eye
Procedure: IOP was determined with an Alcon Pneumatonometer after light corneal anesthesia with 0.1% proparacaine. Eyes were washed with saline after each measurement. After a baseline IOP measurement, test compound was instilled in one 30 μL aliquot to the right eyes only of nine cynomolgus monkeys. Vehicle was instilled in the right eyes of six additional animals. Subsequent IOP measurements were taken at 1, 3, and 6 hours.

5HT2A(rat) [2] = biological target: T1, 5HT2A(rat) (Rattus norvegicus, UniProt P14842); assay: 5-HT2 Receptor Binding Assay ([125I]DOI competition, cerebral cortex homogenates); parameters: Aliquots of post mortem rat or human cerebral cortex homogenates (400 μL) dispersed in 50 mM TrisHCl buffer; from tissue; host or cells: post mortem rat cerebral cortex homogenate; details: inhibition of [125I]DOI binding
Procedure: 5-HT2 Receptor Binding Assay
Aliquots of post mortem rat or human cerebral cortex homogenates (400 μL) dispersed in 50 mM TrisHCl buffer (pH 7.4) are incubated with [^125I]DOI (80 pM final) in the absence or presence of methiothepin (10 μM final) to define total and non-specific binding, respectively, in a total volume of 0.5 mL. The assay mixture is incubated for 1 hour at 23° C. in polypropylene tubes and the assays terminated by rapid vacuum filtration over Whatman GF/B glass fiber filters previously soaked in 0.3% polyethyleneimine using ice-cold buffer. Test compounds (at different concentrations) are substituted for methiothepin. Filter-bound radioactivity is determined by scintillation spectrometry on a beta counter. The data are analyzed using a non-linear, iterative curve-fitting computer program [Trends Pharmacol. Sci., 16, 413 (1995)] to determine the compound affinity parameter. The concentration of the compound needed to inhibit the [^125I]DOI binding by 50% of the maximum is termed the IC50 or Ki value.

5HT2A(rat) [3] = biological target: T1, 5HT2A(rat); assay: 5HT2 Functional Assay: [Ca2+]i Mobilization (FLIPR, A7r5 cells); type: cell-based; parameters: endogenous in cells; host or cells: A7r5 rat vascular smooth muscle cells; details: for EC50: [Ca2+]i mobilization, rat vascular smooth muscle cells A7r5; for Emax: percentage of maximum 5-HT-induced response, A7r5 cells
Procedure: The receptor-mediated mobilization on intracellular calcium ([Ca^2+]i) was studied using the Fluorescence Imaging Plate Reader (FLIPR) instrument. Rat vascular smooth muscle cells, A7r5, were grown in a normal media of DMEM/10% FBS and 10 μg/mL gentamycin. Confluent cell monolayers were trypsinized, pelleted, and re-suspended in normal media. Cells were seeded in a 50 μL volume at a density of 20,000 cells/well in a black wall, 96-well tissue culture plate and grown for 2 days.
On the day of the experiment, one vial of FLIPR Calcium Assay Kit dye was re-suspended in 50 mL of a FLIPR buffer consisting of Hank's Balanced Salt Solution (HBSS), 20 mM HEPES, and 2.5 mM probenecid, pH 7.4. Cells were loaded with the calcium-sensitive dye by addition of an equal volume (50 μL) to each well of the 96-well plate and incubated with dye for 1 h at 23° C.
Compounds were diluted 1:50 in 20% DMSO/20% Ethanol. For “hit” screening, compounds were further diluted 1:10 in FLIPR buffer and tested at a final concentration of 10 μM.
The compound plate and cell plate were placed in the FLIPR instrument. At the beginning of an experimental run, a signal test was performed to check the basal fluorescence signal from the dye-loaded cells and the uniformity of the signal across the plate. The basal fluorescence was adjusted between 8000-12000 counts by modifying the exposure time, the camera F-stop, or the laser power. Instrument settings for a typical assay were the following: laser power 0.3-0.6 W, camera F-stop F/2, and exposure time 0.4 sec. An aliquot (25 μL) of the test compound was added to the existing 100 μL dye-loaded cells at a dispensing speed of 50 μL/sec. Fluorescence data were collected in real-time at 1.0 sec intervals for the first 60 secs and at 6.0 sec intervals for an additional 120 secs.

[4] = 1 hour after dose, 300 μg topical
[5] = 3 hours after dose, 300 μg topical
[6] = 6 hours after dose, 300 μg topical

T1 sequence (P14842 whole entry): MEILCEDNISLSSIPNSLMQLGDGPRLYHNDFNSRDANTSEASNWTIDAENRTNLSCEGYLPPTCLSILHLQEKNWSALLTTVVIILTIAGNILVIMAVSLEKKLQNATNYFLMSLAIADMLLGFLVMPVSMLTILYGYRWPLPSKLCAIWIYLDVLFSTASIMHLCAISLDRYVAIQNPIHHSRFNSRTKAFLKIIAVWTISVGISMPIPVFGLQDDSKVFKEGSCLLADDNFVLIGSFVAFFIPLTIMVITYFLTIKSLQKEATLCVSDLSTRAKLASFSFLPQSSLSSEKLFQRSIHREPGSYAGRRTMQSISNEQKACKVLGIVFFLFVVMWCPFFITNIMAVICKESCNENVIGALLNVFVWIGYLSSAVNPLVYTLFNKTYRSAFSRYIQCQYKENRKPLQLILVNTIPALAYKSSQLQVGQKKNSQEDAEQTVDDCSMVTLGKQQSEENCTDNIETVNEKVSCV

Compound | Percent IOP Reduction ± SEM ([1]; 1 hour after dose, 100 μg topical) | Percent IOP Reduction ± SEM ([1]; 3 hours after dose, 100 μg topical) | Percent IOP Reduction ± SEM ([1]; 6 hours after dose, 100 μg topical) | IC50 (5HT2A(rat) [2]) | EC50 (5HT2A(rat) [3]) | Emax (5HT2A(rat) [3]) | Percent IOP Reduction ± SEM [1, 4] | Percent IOP Reduction ± SEM [1, 5] | Percent IOP Reduction ± SEM [1, 6] | melting point
COc1cc(C[C@@H](C)N)c(OC)cc1I [(R)-DOI, reference compound] | 11 ± 5% | 25 ± 3% | 34 ± 5% |  |  |  |  |  |  | 
C[C@H](N)Cn1ncc2ccc3oc(C(N)=O)cc3c21 [Example 3, 1-((S)-2-Aminopropyl)-1H-furo[2,3-g]indazole-7-carboxylic acid amide] |  |  |  | 0.0023 µM | 0.158 µM | 87% | 9 ± 4% | 23 ± 4% | 27 ± 5% | 
CNC(=O)c1cc2c(ccc3cnn(C[C@H](C)N)c32)o1.O=C(O)/C=C/C(=O)O [Example 4, 1-((S)-2-Aminopropyl)-1H-furo[2,3-g]indazole-7-carboxylic acid methyl amide fumarate] |  |  |  | 0.00081 µM | 0.054 µM | 98% | 13 ± 3% | 30 ± 4% | 31 ± 4% | 180 to 182 °C
C[C@H](N)Cn1ncc2ccc3oc(C(=O)NCC(C)(C)CO)cc3c21 [Example 11, 1-((S)-2-Aminopropyl)-1H-furo[2,3-g]indazole-7-carboxylic acid (3-hydroxy-2,2-dimethyl-propyl)-amide] |  |  |  | 0.0018 µM | 0.074 µM | 76% | 10 ± 5% | 23 ± 5% | 26 ± 5% | 
